Tested on: MV-4-11 cells
Experiment: Gene expression microarray analysis (Affymetrix PrimeView) and GSEA
Type: cell-based, human
Parameters: RFU PODN (11730768_x_at) / Fold change /veh PODN (11730768_x_at) / RFU LINC00158 (11744669_a_at) / Fold change /veh LINC00158 (11744669_a_at) / RFU DUSP10 (11751237_a_at) / Fold change /veh DUSP10 (11751237_a_at) / RFU ID3 (11757404_x_at) / Fold change /veh ID3 (11757404_x_at) / RFU PLEKHG5 (11737974_s_at) / Fold change /veh PLEKHG5 (11737974_s_at) / RFU LRRC4B (11730491_at) / Fold change /veh LRRC4B (11730491_at) / RFU GIMAP4 (11747438_a_at) / Fold change /veh GIMAP4 (11747438_a_at) / RFU KRT8 (11758183_x_at) / Fold change /veh KRT8 (11758183_x_at) / RFU CNN1 (11734310_a_at) / Fold change /veh CNN1 (11734310_a_at) / RFU VPS37D (11726825_at) / Fold change /veh VPS37D (11726825_at) / RFU C10orf10 (11716522_x_at) / Fold change /veh C10orf10 (11716522_x_at) / RFU KIR2DL2 /// KIR2DL4 /// KIR2DL5A /// KIR2DL5B /// KIR2DS1 /// KIR2DS2 /// KIR2DS3 /// KIR2DS4 /// KIR3DL3 /// KIR3DL3 /// KIR3DS1 (11738374_at) / Fold change /veh KIR2DL2 /// KIR2DL4 /// KIR2DL5A /// KIR2DL5B /// KIR2DS1 /// KIR2DS2 /// KIR2DS3 /// KIR2DS4 /// KIR3DL3 /// KIR3DL3 /// KIR3DS1 (11738374_at) / RFU C1QL1 (11718748_at) / Fold change /veh C1QL1 (11718748_at) / RFU TMPRSS4 (11747572_a_at) / Fold change /veh TMPRSS4 (11747572_a_at) / RFU HAMP (11756126_x_at) / Fold change /veh HAMP (11756126_x_at) / RFU RNFT2 (11725882_a_at) / Fold change /veh RNFT2 (11725882_a_at) / RFU NR4A2 (11747474_a_at) / Fold change /veh NR4A2 (11747474_a_at) / RFU ABCC12 (11746883_a_at) / Fold change /veh ABCC12 (11746883_a_at) / RFU TMEM136 (11760407_x_at) / Fold change /veh TMEM136 (11760407_x_at) / RFU CLDN22 /// WWC2 (11732394_at) / Fold change /veh CLDN22 /// WWC2 (11732394_at) / RFU HLA-DPB1 (11760878_x_at) / Fold change /veh HLA-DPB1 (11760878_x_at) / RFU SPINT1 (11716480_a_at) / Fold change /veh SPINT1 (11716480_a_at) / RFU GAP43 (11754022_s_at) / Fold change /veh GAP43 (11754022_s_at) / RFU A4GNT (11735810_at) / Fold change /veh A4GNT (11735810_at) / RFU PRB3 (11715151_x_at) / Fold change /veh PRB3 (11715151_x_at) / RFU TUBB4B (11761932_at) / Fold change /veh TUBB4B (11761932_at) / RFU CAPN14 (11732068_a_at) / Fold change /veh CAPN14 (11732068_a_at) / RFU TMCC2 (11721928_a_at) / Fold change /veh TMCC2 (11721928_a_at) / RFU IRGQ (11745062_a_at) / Fold change /veh IRGQ (11745062_a_at) / RFU FAM174B (11720279_a_at) / Fold change /veh FAM174B (11720279_a_at) / RFU TMPRSS4 (11748680_a_at) / Fold change /veh TMPRSS4 (11748680_a_at) / RFU FAM212B (11763350_a_at) / Fold change /veh FAM212B (11763350_a_at) / RFU PLEKHG5 (11743358_a_at) / Fold change /veh PLEKHG5 (11743358_a_at) / RFU ZSCAN30 (11745921_a_at) / Fold change /veh ZSCAN30 (11745921_a_at) / RFU CMKLR1 (11741424_a_at) / Fold change /veh CMKLR1 (11741424_a_at) / RFU LOC101060620 /// MAPK8IP1 (11723275_at) / Fold change /veh LOC101060620 /// MAPK8IP1 (11723275_at) / RFU SPTSSB (11747773_x_at) / Fold change /veh SPTSSB (11747773_x_at) / RFU PRSS12 (11739890_at) / Fold change /veh PRSS12 (11739890_at) / RFU BIN1 (11741810_x_at) / Fold change /veh BIN1 (11741810_x_at) / RFU WNT11 (11732464_a_at) / Fold change /veh WNT11 (11732464_a_at) / RFU C10orf10 (11716521_a_at) / Fold change /veh C10orf10 (11716521_a_at) / RFU C5orf56 (11738089_at) / Fold change /veh C5orf56 (11738089_at) / RFU CYB561 (11721691_x_at) / Fold change /veh CYB561 (11721691_x_at) / RFU ANKRD19P (11752326_a_at) / Fold change /veh ANKRD19P (11752326_a_at) / RFU OR2T12 /// OR2T33 /// OR2T8 (11738714_s_at) / Fold change /veh OR2T12 /// OR2T33 /// OR2T8 (11738714_s_at) / RFU VCAN (11748164_a_at) / Fold change /veh VCAN (11748164_a_at) / RFU JSRP1 (11732532_at) / Fold change /veh JSRP1 (11732532_at) / RFU KRTAP10-11 (11738290_x_at) / Fold change /veh KRTAP10-11 (11738290_x_at) / RFU MYO3A (11730013_a_at) / Fold change /veh MYO3A (11730013_a_at) / RFU EBF3 (11725865_a_at) / Fold change /veh EBF3 (11725865_a_at) / RFU CAMK2N1 (11719241_x_at) / Fold change /veh CAMK2N1 (11719241_x_at) / RFU C5orf56 (11738088_a_at) / Fold change /veh C5orf56 (11738088_a_at) / RFU OLFML3 (11715873_a_at) / Fold change /veh OLFML3 (11715873_a_at) / RFU LOC100653217 /// NTM (11731650_a_at) / Fold change /veh LOC100653217 /// NTM (11731650_a_at) / RFU MAPK11 (11762145_a_at) / Fold change /veh MAPK11 (11762145_a_at) / RFU FIZ1 (11724087_x_at) / Fold change /veh FIZ1 (11724087_x_at) / RFU OASL (11726364_x_at) / Fold change /veh OASL (11726364_x_at) / RFU SOX15 (11748057_x_at) / Fold change /veh SOX15 (11748057_x_at) / RFU CD79A (11719716_a_at) / Fold change /veh CD79A (11719716_a_at) / RFU HIST1H1D (11736915_at) / Fold change /veh HIST1H1D (11736915_at) / RFU CASKIN2 (11723855_a_at) / Fold change /veh CASKIN2 (11723855_a_at) / RFU LOC730098 (11760151_x_at) / Fold change /veh LOC730098 (11760151_x_at) / RFU OR4N2 (11742367_at) / Fold change /veh OR4N2 (11742367_at) / RFU PRRT2 (11749266_a_at) / Fold change /veh PRRT2 (11749266_a_at) / RFU SNX32 (11753110_a_at) / Fold change /veh SNX32 (11753110_a_at) / RFU CDHR5 (11726645_a_at) / Fold change /veh CDHR5 (11726645_a_at) / RFU RCAN1 (11760418_a_at) / Fold change /veh RCAN1 (11760418_a_at) / RFU FAM167A (11723789_a_at) / Fold change /veh FAM167A (11723789_a_at) / RFU FAM26E (11764081_at) / Fold change /veh FAM26E (11764081_at) / RFU ISYNA1 (11749810_s_at) / Fold change /veh ISYNA1 (11749810_s_at) / RFU ACY1 (11761880_at) / Fold change /veh ACY1 (11761880_at) / RFU 11764098_at / Fold change /veh 11764098_at / RFU SAMD14 (11745864_x_at) / Fold change /veh SAMD14 (11745864_x_at) / RFU NPB (11741838_a_at) / Fold change /veh NPB (11741838_a_at) / RFU TMPRSS6 (11731388_a_at) / Fold change /veh TMPRSS6 (11731388_a_at) / RFU KRTAP10-2 (11738614_at) / Fold change /veh KRTAP10-2 (11738614_at) / RFU ARHGAP8 /// PRR5-ARHGAP8 (11727945_x_at) / Fold change /veh ARHGAP8 /// PRR5-ARHGAP8 (11727945_x_at) / RFU KRTAP5-7 /// NADSYN1 (11734609_at) / Fold change /veh KRTAP5-7 /// NADSYN1 (11734609_at) / RFU RASL12 (11751679_a_at) / Fold change /veh RASL12 (11751679_a_at) / RFU CDKN2B (11736163_a_at) / Fold change /veh CDKN2B (11736163_a_at) / RFU PRF1 (11729649_at) / Fold change /veh PRF1 (11729649_at) / RFU, ZNF638 /// ZNF638-IT1 / Fold change vs veh, ZNF638 /// ZNF638-IT1 / RFU, PANK3 / Fold change vs veh, PANK3 / RFU, SH3YL1 / Fold change vs veh, SH3YL1 / RFU, ZEB2 / Fold change vs veh, ZEB2 / RFU, NRIP1 / Fold change vs veh, NRIP1 / RFU, PTTG1IP / Fold change vs veh, PTTG1IP / RFU, CAPN2 / Fold change vs veh, CAPN2 / RFU, MED14 / Fold change vs veh, MED14 / RFU, SNORA58 / Fold change vs veh, SNORA58 / RFU, C1orf63 / Fold change vs veh, C1orf63 / RFU, LRRFIP1 / Fold change vs veh, LRRFIP1 / RFU, NDUFAF7 / Fold change vs veh, NDUFAF7 / RFU, SLC12A2 / Fold change vs veh, SLC12A2 / RFU, IBTK / Fold change vs veh, IBTK / RFU, ESF1 / Fold change vs veh, ESF1 / Fold change vs veh, TMEM50B / RFU, TAOK1 / Fold change vs veh, TAOK1 / RFU, ACBD3 / Fold change vs veh, ACBD3 / RFU, TMA16 / Fold change vs veh, TMA16 / RFU, RWDD3 / Fold change vs veh, RWDD3 / RFU, BCAT1 / Fold change vs veh, BCAT1 / RFU, EDEM3 / Fold change vs veh, EDEM3 / RFU, TMEM33 / Fold change vs veh, TMEM33 / RFU, WDR75 / Fold change vs veh, WDR75 / RFU, AHCTF1 / Fold change vs veh, AHCTF1 / RFU, TFRC / Fold change vs veh, TFRC / RFU, ZDHHC17 / Fold change vs veh, ZDHHC17 / RFU, NOM1 / Fold change vs veh, NOM1 / RFU, ARL8B / Fold change vs veh, ARL8B / RFU, ZBTB11 / Fold change vs veh, ZBTB11 / RFU, TAMM41 / Fold change vs veh, TAMM41 / RFU, KIAA1704 /// LOC100996395 / Fold change vs veh, KIAA1704 /// LOC100996395 / RFU, ING1 / Fold change vs veh, ING1 / RFU, TRMT61B / Fold change vs veh, TRMT61B / RFU, FUBP3 / Fold change vs veh, FUBP3 / RFU, TP53 / Fold change vs veh, TP53 / RFU, TNKS2 / Fold change vs veh, TNKS2 / RFU, ZFP14 / Fold change vs veh, ZFP14 / RFU, ACTR2 / Fold change vs veh, ACTR2 / RFU, PPP3R1 / Fold change vs veh, PPP3R1 / RFU, PIK3R1 / Fold change vs veh, PIK3R1 / RFU, HNRNPA1 / Fold change vs veh, HNRNPA1 / RFU, RNF170 / Fold change vs veh, RNF170 / RFU, ZNF28 / Fold change vs veh, ZNF28 / RFU, RNGTT / Fold change vs veh, RNGTT / RFU, OGT / Fold change vs veh, OGT / RFU, BRD1 / Fold change vs veh, BRD1 / RFU, MARS / Fold change vs veh, MARS / RFU, ZNF655 / Fold change vs veh, ZNF655 / RFU, FAHD1 / Fold change vs veh, FAHD1 / RFU, BDP1 / Fold change vs veh, BDP1 / RFU, LRRCC1 / Fold change vs veh, LRRCC1 / RFU, ARID1A / Fold change vs veh, ARID1A / RFU, ZNF146 / Fold change vs veh, ZNF146 / RFU, ZNF330 / Fold change vs veh, ZNF330 / RFU, GPN3 / Fold change vs veh, GPN3 / RFU, C9orf123 / Fold change vs veh, C9orf123 / RFU, N4BP2L2 / Fold change vs veh, N4BP2L2 / RFU, ARFIP1 / Fold change vs veh, ARFIP1 / RFU, FAM179B / Fold change vs veh, FAM179B / RFU, BCL10 / Fold change vs veh, BCL10 / RFU, UHRF1BP1L / Fold change vs veh, UHRF1BP1L / RFU, BET1 / Fold change vs veh, BET1 / RFU, CNOT2 / Fold change vs veh, CNOT2 / RFU, ZNF268 / Fold change vs veh, ZNF268 / Fold change vs veh, ZNF507 / RFU, DGCR2 / Fold change vs veh, DGCR2 / RFU, WDSUB1 / Fold change vs veh, WDSUB1 / Fold change vs veh, HSP90B1 /// MIR3652 / RFU, ADSS / Fold change vs veh, ADSS / RFU, GK / Fold change vs veh, GK / RFU, ZNF148 / Fold change vs veh, ZNF148 / RFU, TAF9 / Fold change vs veh, TAF9 / RFU, SLC1A5 / Fold change vs veh, SLC1A5 / RFU, SLMO2 / Fold change vs veh, SLMO2 / RFU, ABCC4 / Fold change vs veh, ABCC4 / RFU, LOC101060439 /// RAP1B / Fold change vs veh, LOC101060439 /// RAP1B / RFU, RFX7 / Fold change vs veh, RFX7 / RFU, GTPBP10 / Fold change vs veh, GTPBP10 / RFU, CNEP1R1 / Fold change vs veh, CNEP1R1 / RFU, BIVM-ERCC5 /// ERCC5 / Fold change vs veh, BIVM-ERCC5 /// ERCC5 / RFU, ILF3 / Fold change vs veh, ILF3 / RFU 11762660_at / Fold change /veh 11762660_at / RFU VCAN (11757783_s_at) / Fold change /veh VCAN (11757783_s_at) / RFU DDX43 (11728927_at) / Fold change /veh DDX43 (11728927_at) / RFU KRT8 (11758188_x_at) / Fold change /veh KRT8 (11758188_x_at) / RFU NKD1 (11759106_at) / Fold change /veh NKD1 (11759106_at) / RFU SRD5A1 (11742802_a_at) / Fold change /veh SRD5A1 (11742802_a_at) / RFU TPSAB1 /// TPSB2 (11721975_s_at) / Fold change /veh TPSAB1 /// TPSB2 (11721975_s_at) / RFU GSTM3 (11746129_a_at) / Fold change /veh GSTM3 (11746129_a_at) / RFU IL23R (11737362_x_at) / Fold change /veh IL23R (11737362_x_at) / RFU TMEM51 (11727254_a_at) / Fold change /veh TMEM51 (11727254_a_at) / RFU PIWIL2 (11732686_x_at) / Fold change /veh PIWIL2 (11732686_x_at) / RFU ORM1 (11744905_x_at) / Fold change /veh ORM1 (11744905_x_at) / RFU CCDC152 (11743942_at) / Fold change /veh CCDC152 (11743942_at) / RFU ECM1 (11717891_a_at) / Fold change /veh ECM1 (11717891_a_at) / RFU IL23R (11748794_a_at) / Fold change /veh IL23R (11748794_a_at) / RFU TNFAIP8L3 (11732012_x_at) / Fold change /veh TNFAIP8L3 (11732012_x_at) / RFU MBOAT4 (11741988_at) / Fold change /veh MBOAT4 (11741988_at) / RFU 11764193_at / Fold change /veh 11764193_at / RFU TMEM53 (11763286_at) / Fold change /veh TMEM53 (11763286_at) / RFU MAGEB2 (11727129_at) / Fold change /veh MAGEB2 (11727129_at) / RFU TMEM200A (11744735_a_at) / Fold change /veh TMEM200A (11744735_a_at) / RFU CCDC152 (11751479_a_at) / Fold change /veh CCDC152 (11751479_a_at) / RFU FAM211A (11726209_a_at) / Fold change /veh FAM211A (11726209_a_at) / RFU RGS16 (11746705_a_at) / Fold change /veh RGS16 (11746705_a_at) / RFU VCAN (11755009_s_at) / Fold change /veh VCAN (11755009_s_at) / RFU RHOB (11743442_s_at) / Fold change /veh RHOB (11743442_s_at) / RFU RGS16 (11720943_a_at) / Fold change /veh RGS16 (11720943_a_at) / RFU RGS16 (11720944_at) / Fold change /veh RGS16 (11720944_at) / RFU, VPS4B / Fold change vs veh, VPS4B / RFU, CREB1 / Fold change vs veh, CREB1 / RFU, DNAJC13 / Fold change vs veh, DNAJC13 / RFU, GNAQ / Fold change vs veh, GNAQ / RFU, CDK5R1 / Fold change vs veh, CDK5R1 / RFU, ZRANB3 / Fold change vs veh, ZRANB3 / RFU, CUL4A / Fold change vs veh, CUL4A / RFU, CCNY / Fold change vs veh, CCNY / RFU, UFL1 / Fold change vs veh, UFL1 / RFU, COG3 / Fold change vs veh, COG3 / RFU, DIAPH2 / Fold change vs veh, DIAPH2 / RFU, SKA2 / Fold change vs veh, SKA2 / RFU, AFF3 / Fold change vs veh, AFF3 / RFU, LMF1 / Fold change vs veh, LMF1 / RFU, IPO11 / Fold change vs veh, IPO11 / RFU, DFFB / Fold change vs veh, DFFB / RFU, FOXP1 / Fold change vs veh, FOXP1 / RFU, CARD8 / Fold change vs veh, CARD8 / RFU, STRN3 / Fold change vs veh, STRN3 / RFU, ADK / Fold change vs veh, ADK / RFU, RASSF2 / Fold change vs veh, RASSF2 / RFU, WIPF1 / Fold change vs veh, WIPF1 / RFU, LARP1B / Fold change vs veh, LARP1B / RFU, RASA1 / Fold change vs veh, RASA1 / RFU, RB1 / Fold change vs veh, RB1 / RFU, PPFIA1 / Fold change vs veh, PPFIA1 / RFU, MAT2A / Fold change vs veh, MAT2A / RFU, CCT5 / Fold change vs veh, CCT5 / RFU, WDR92 / Fold change vs veh, WDR92 / RFU, CUX1 / Fold change vs veh, CUX1 / RFU, TTC7A / Fold change vs veh, TTC7A / RFU, TMEM135 / Fold change vs veh, TMEM135 / RFU, DEPTOR / Fold change vs veh, DEPTOR / RFU, CPM / Fold change vs veh, CPM / RFU, DNAJB6 / Fold change vs veh, DNAJB6 / RFU, CACNA2D3 / Fold change vs veh, CACNA2D3 / RFU, DTX4 / Fold change vs veh, DTX4 / RFU, TFCP2 / Fold change vs veh, TFCP2 / RFU, GMCL1 /// GMCL1P1 / Fold change vs veh, GMCL1 /// GMCL1P1 / RFU, AEBP2 / Fold change vs veh, AEBP2 / RFU, SNHG1 /// SNORD22 /// SNORD25 /// SNORD26 /// SNORD27 /// SNORD28 /// SNORD29 /// SNORD31 / Fold change vs veh, SNHG1 /// SNORD22 /// SNORD25 /// SNORD26 /// SNORD27 /// SNORD28 /// SNORD29 /// SNORD31 / Fold change (Aza/veh), C12orf56 (ProbeSet 11735607_a_at) / Fold change (ACY-1035/veh), C12orf56 (ProbeSet 11735607_a_at) / Fold change (Aza/veh), FGFR1OP (ProbeSet 11751329_s_at) / Fold change (ACY-1035/veh), FGFR1OP (ProbeSet 11751329_s_at) / Fold change (Aza/veh), VPS36 (ProbeSet 11739960_a_at) / Fold change (ACY-1035/veh), VPS36 (ProbeSet 11739960_a_at) / RFU SYPL1 (11715823_x_at) / Fold change /veh SYPL1 (11715823_x_at) / RFU IGFBP7 (11715501_s_at) / Fold change /veh IGFBP7 (11715501_s_at) / RFU REEP3 (11722064_at) / Fold change /veh REEP3 (11722064_at) / RFU IGLL1 (11728026_x_at) / Fold change /veh IGLL1 (11728026_x_at): dose or concentration left out as unconfirmed
Conditions: MV-4-11 cells, 48 hours

Nc1ncn([C@@H]2O[C@H](CO)[C@@H](O)[C@H]2O)c(=O)n1 [azacitidine]
RFU C1QL1 (11718748_at): 641.97 RFU
